The supplement of paper PMC8671470

How the values were obtained:
Test in all cases: cell viability (% survival relative to DMSO control); higher = less cytotoxic
Conditions in all cases: 72 h
[1] = system: myeloid leukemia patient primary cells Pat.11
In short: (§1)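 Thawed mononuclear cells from AML or CML patients were purified on Ficoll and cultured for 72 h in RPMI 1640 with 10% FBS, at 10,000 cells/well, on 384-well plates carrying 70 pre-printed compounds at 1–10,000 nM in five tenfold steps, in duplicate. Viability came from CellTiter-Glo, normalised against DMSO and against 10 μM proteasome inhibitor. Any area under the curve given was derived from log-logistic curve fits in the drc and PharmacoGx R packages, and these fits had four parameters.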

[2] = system: myeloid leukemia patient primary cells Pat.14
In short: as §1

[3] = system: myeloid leukemia patient primary cells Pat.1
In short: as §1

[4] = system: myeloid leukemia patient primary cells Pat.4
In short: as §1

[5] = system: myeloid leukemia patient primary cells Pat.5
In short: as §1

[6] = system: myeloid leukemia patient primary cells Pat.6
In short: as §1

[7] = system: myeloid leukemia patient primary cells Pat.7
In short: as §1

[8] = system: myeloid leukemia patient primary cells Pat.8
In short: as §1

[9] = system: myeloid leukemia patient primary cells Pat.9
In short: as §1

BV-173 = system: BV-173
Protocol: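 8x8 drug-combination matrices (0–5000 nM; rosiglitazone and lestaurtinib 0–1000 nM) were run in BV-173 cells for 72 h with CellTiter-Glo read-out. Survival is normalised to DMSO and 10 µM bortezomib and clipped at 100%.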

N#CC(C#N)=NNc1ccc(OC(F)(F)F)cc1 [FCCP]
cell viability [%]
Conditions | [1] | [2] | [3] | [4] | [5] | [6] | [7] | [8] | [9]
1 nM | 98 | 67.3 | 90.1 | 89 | 19.1 | 87 | 82.8 | 71.4 | 54
10 nM | 97.3 | 93.7 | 89.9 | 90.4 | 52.4 | 97.4 | 82.5 | 91.6 | 63.1
100 nM | > 100 | 94.6 | > 100 | 97.9 | 14.8 | 88.8 | 93.6 | 82.1 | 82.9
1000 nM | 82.4 | 17.4 | 59.9 | 53.6 | < 0 | 65.5 | < 0 | 89.1 | 3.45
10000 nM | 9.9 | 0.937 | 5.44 | 4.18 | 3.45 | 20 | < 0 | 3.73 | 0.492

O=C1c2cc([N+](=O)[O-])ccc2-n2c1nc1ccccc1c2=O [GNF-Pf-3777]
cell viability [%]
Conditions | [1] | [2] | [3] | [4] | [5] | [6] | [7] | [8] | [9]
1 nM | > 100 | 96.8 | > 100 | 97.7 | > 100 | > 100 | 95.9 | 97.5 | 82.9
10 nM | 97.9 | 95 | 94.8 | 97 | 63 | 98.8 | 70.7 | 94.9 | 68.9
100 nM | 94 | 96.8 | 86.5 | 96 | 73 | 98.6 | > 100 | 88.4 | 60.9
1000 nM | 86.8 | 85.7 | 77.2 | 79.5 | 36.1 | 94.3 | 97.1 | 84 | 63.4
10000 nM | 64.4 | 54.2 | 65.1 | 19 | 3.37 | 66.8 | 21.8 | 64.9 | 25.8

CC(C)c1onc(-c2c(Cl)cccc2Cl)c1COc1ccc(/C=C/c2cccc(C(=O)O)c2)c(Cl)c1 [GW4064] + Cn1cc(-c2ccncc2)c(-c2ccc(OCc3ccc4ccccc4n3)cc2)n1 [PF-02545920]
cell viability [%], BV-173
Conditions | drug1 concentration 5 nM | drug1 concentration 10 nM | drug1 concentration 50 nM | drug1 concentration 100 nM | drug1 concentration 500 nM | drug1 concentration 1000 nM | drug1 concentration 5000 nM
drug2 concentration 5 nM | > 100 | > 100 | > 100 | 90.6 | > 100 | > 100 | > 100
drug2 concentration 10 nM | > 100 | 95.5 | 95.6 | > 100 | > 100 | > 100 | 98
drug2 concentration 50 nM | > 100 | 88.5 | > 100 | > 100 | > 100 | 80.7 | 74
drug2 concentration 100 nM | > 100 | > 100 | > 100 | > 100 | > 100 | > 100 | 97
drug2 concentration 500 nM | 97.3 | 93.2 | 96 | > 100 | > 100 | > 100 | > 100
drug2 concentration 1000 nM | > 100 | > 100 | 82.7 | 99.2 | 95.5 | 87.3 | 81.7
drug2 concentration 5000 nM | 90.7 | 90.2 | 79.3 | 96.2 | 92.8 | 78.5 | > 100

O=C(O)Cn1nnc(-c2cc(N3CCC(Oc4cc(F)ccc4Br)CC3)no2)n1 [MK-8245]
cell viability [%]
Conditions | [1] | [2] | [3] | [4] | [5] | [6] | [7] | [8] | [9]
1 nM | > 100 | 95.5 | 96.4 | 97.3 | > 100 | 97.8 | 97.4 | > 100 | 82.3
10 nM | 96.4 | 90.3 | 77.4 | 96.4 | 93.9 | 97.2 | 93.6 | 89.4 | 69.4
100 nM | > 100 | 99.3 | 98 | 81 | 90.6 | 97.3 | 82.9 | 94.8 | 79.2
1000 nM | > 100 | 90.2 | 97.5 | 97.3 | 94.3 | > 100 | > 100 | 91.6 | 85.3
10000 nM | 97 | 89.8 | 98.5 | > 100 | 70 | 97 | 56.7 | > 100 | 71.9

C=C(C=NNC(=N)N)NNC(=N)N [Mitoguazone]
cell viability [%]
Conditions | [1] | [2] | [3] | [4] | [5] | [6] | [7] | [8] | [9]
1 nM | 98.8 | 91.4 | 86.1 | 92.5 | > 100 | > 100 | 65.3 | 94.1 | 75.2
10 nM | 92.1 | 54.7 | 72.5 | 82.3 | 0.912 | 82 | 85.7 | 69 | 50.8
100 nM | > 100 | 4.62 | 93.5 | 48.1 | 0.265 | 44.5 | < 0 | 50 | 1.24
1000 nM | 98.6 | 2.41 | 94.2 | 92.3 | 1.33 | 1.04 | < 0 | 99.8 | 1.6
10000 nM | 84.1 | 80.8 | 69 | 44.2 | 78.9 | 50.8 | 54.5 | 94.2 | 57.2
